# Source: ChEMBL document CHEMBL1201862, “PubChem BioAssay data set” (2004)
# The source made the active and inactive calls. Rule as the data show it: actives have a measured IC50 and inactives only a lower limit.
# Target: Envelope glycoprotein gp160 (Human immunodeficiency virus 1, UniProt Q6QLK5)
# Assay: cell-free HIV fusion peptide-binding blockers – biochemical, uHTS, fluorescence dequenching, […] (AID 1986)
# Chain of Envelope glycoprotein gp160 (Q6QLK5 whole entry, the tested form may be a part): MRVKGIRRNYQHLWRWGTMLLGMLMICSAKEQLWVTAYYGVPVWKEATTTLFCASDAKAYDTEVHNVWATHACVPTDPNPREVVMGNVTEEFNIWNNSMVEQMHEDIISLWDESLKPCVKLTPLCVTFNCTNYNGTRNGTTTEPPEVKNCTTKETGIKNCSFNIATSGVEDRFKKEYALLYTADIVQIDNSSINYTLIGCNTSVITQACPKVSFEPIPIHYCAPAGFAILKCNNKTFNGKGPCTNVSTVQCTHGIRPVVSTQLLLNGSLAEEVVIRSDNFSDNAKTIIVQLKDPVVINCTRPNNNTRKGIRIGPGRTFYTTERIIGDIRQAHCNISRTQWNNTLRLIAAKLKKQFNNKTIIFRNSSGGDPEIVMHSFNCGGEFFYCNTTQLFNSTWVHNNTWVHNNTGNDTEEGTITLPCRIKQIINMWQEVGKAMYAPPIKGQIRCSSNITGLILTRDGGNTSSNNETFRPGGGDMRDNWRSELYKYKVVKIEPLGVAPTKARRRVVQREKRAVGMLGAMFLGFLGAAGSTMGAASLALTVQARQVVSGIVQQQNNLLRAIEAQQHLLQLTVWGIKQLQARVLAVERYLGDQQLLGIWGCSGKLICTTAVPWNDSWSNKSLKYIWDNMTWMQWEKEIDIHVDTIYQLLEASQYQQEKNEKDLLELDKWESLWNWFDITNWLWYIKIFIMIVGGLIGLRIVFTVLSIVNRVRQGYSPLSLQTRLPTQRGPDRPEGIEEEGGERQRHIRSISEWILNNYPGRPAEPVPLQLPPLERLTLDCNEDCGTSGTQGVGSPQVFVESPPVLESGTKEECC
row,Compound,IC50
1,COc1cc(/C=C2\C(=N)N3N=C(S(C)(=O)=O)SC3=NC2=O)cc(OC)c1OCCOc1ccccc1C,14.6 µM (active)
2,Cc1ccc(-n2cccc2/C=C2/C(=N)N3C(=NC2=O)SN=C3S(C)(=O)=O)cc1Cl,6.32 µM (active)
3,O=C1NN(c2ccc(Cl)c(Cl)c2)C(=O)/C1=C/c1ccc(-c2ccccc2C(=O)O)o1,15.7 µM (active)
4,O=C(O)c1cccc(NC(=S)N/N=C/c2ccccc2OCc2cccc(Br)c2)c1,13.2 µM (active)
